In one series the test system is LSCs. Put plainly: In vitro viability of LSCs from AML patient samples. The class given is cell-based, human.
The next series has as its system CD34+/CD38−/CD123+ cells. Put plainly: Viability of cell populations from MDS patient samples in vitro. The settings on record: for viability / killing of CD123+ MDS stem cells: MDS patient samples, anisomycin 200 nM and 400 nM, ABT-199 200 nm, omacetaxine 200 nM, azacitidine 2.5 μM. In kind it is cell-based, human. Here is the method: Strategies involving inhibiting protein translation were investigated as a means of improving therapeutic outcomes for MDS through the targeting of pathways deregulated in the CD123+ MDS stem cell compartment. A reagent grade compound, anisomycin was tested. Anisomycin is known to inhibit protein translation and induce “ribotoxic stress”.
(§1) Next, the drug omacetaxine mepesuccinate was tested. Omacetaxine is a protein synthesis inhibitor which is FDA approved.
The drug azacitidine was also tested.
The second major phenotype found to be deregulated in CD123+ cells was oxidative phosphorylation and redox status. Thus, the ability of the BCL-2 inhibitor ABT-199 (venetoclax) to preferentially eliminate MDS stem cells was tested.

For the next series, the system named is MDS stem cells. Put plainly: Patient bone marrow derived xenograft model of MDS in NSG-S mice. The class given is in vivo. To be noted: for engraftment models with single agent toxicity for human CD45+ cells: three high-risk MDS patient xenografts. From the text: To further evaluate the clinical potential of various agents for targeting of MDS stem cells, an in vivo patient bone marrow derived xenograft model of MDS was developed. The system employed the use of primary MDS specimens transplanted into immune deficient NSG-S mice.
Xenografts established using specimens from three independent high-risk MDS patients were used. Drug treatments included single agent therapy with omacetaxine, venetoclax (ABT), azacitidine, the combination of omacetaxine and venetoclax, or the combination of omacetaxine and azacitidine. To evaluate overall drug activity, the reduction of total human hematopoietic cells was measured using the CD45 (pan-hematopoietic) antigen as a marker. […] Next, drug activity in the stem cell compartment was monitored by gating on the CD34+/CD38−/CD123+ subpopulation.
(Xenograft models place foreign cells or tissue in a host animal.)

The subject of another series is ROS-low LSCs. Put plainly: In vitro amino acid uptake, amino acid levels and transporter expression in LSCs. To be noted: LSCs isolated from three patients. In kind it is cell-based, human. Here is the method:
Amino acid levels and cell viability were then measured.

The test system of the next series is ETC complex II. Put plainly: Glutathione, sdhA glutathionylation and ETC complex II activity in primary AML specimens in vitro. The class given is cell-based, human.
For the next series, the system named is AML blasts. Put plainly: OXPHOS (seahorse assay) in leukemia cells from patients pre and 24 hours post treatment. The class given is in vivo, human. To be noted: patients receiving single agent.
The subject of series [1] is LSCs and non-LSCs from human AML specimens. Put plainly: Valinomycin treatment of freshly sorted LSCs and non-LSCs. In kind it is cell-based. As for the experimental part: To determine whether primary AML cells with a higher expression of FIS1 have increased mitophagy activity, valinomycin treatment experiments were performed on freshly sorted LSCs and non-LSCs from human AML specimens.

A further series has as its system CD34+ cells. Put plainly: Valinomycin treatment of normal CD34+ cells. The class given is cell-based, human. To be noted: control and shFIS1 CD34+ cells.
In the next series the test system is MOLM-13 cells. Put plainly: Valinomycin-induced mitophagy in MOLM-13 cells. In kind it is cell-based, human. The settings on record: control MOLM-13 cells. As for the experimental part: To test whether FIS1 is responsible for the distinct mitochondrial morphology, shRNA-mediated knockdown studies in both the AML cell line MOLM-13 and primary AML cells were performed to examine the effect of FIS1 loss on mitochondrial dynamics. […] To determine if the increased mitochondrial content in FIS1-depleted AML cells is caused by a deficient state of mitophagy, mitophagy was induced in the FIS1-depleted and control cells using the mitochondrial stress inducer valinomycin. […] Expression of PINK1, a kinase stabilized upon mitophagy activation and involved in the clearance of damaged mitochondria was also measured.

Another series relates to protein synthesis. Put plainly: Protein translation levels (OP-puro) in MDS cells. In kind it is cell-based, human. To be noted: MDS patient samples, 4 hours. Here is the method:
The upregulation of the translation gene sets indicates a potential for increased protein synthesis in the CD123+ stem cell population. To further investigate changes in translational activity, protein synthesis levels were measured by culturing cells with a fluorescent substrate known as OP-puro, which is incorporated into newly synthesized polypeptide chains and can be quantified as a measure of overall protein synthesis activity.
as §1

For a further series, the system named is primary MDS cells. Put plainly: Mitochondrial respiration of primary MDS cells. The class given is cell-based, human. From the text:
An additional component of the efficacy observed with combined ABT-199 and omacetaxine may involve suppression of MCL-1 as increased MCL-1 expression in CD34+/CD123+ MDS cells was observed. Resistance to BCL-2 inhibition can be overcome via treatment with protein synthesis inhibitors, which down-regulate expression of MCL-1.

The next series relates to isocitrate dehydrogenase. Put plainly: TCA cycle enzyme activity in relapsed LSCs after APO866. To be noted: 4 hours. The class given is cell-based, human.
For the next series, the system named is relapsed LSCs. Put plainly: APO866 treatment of LSCs from relapsed AML patients (NAD+, viability, colony formation, OXPHOS, glycolysis, metabolic flux). In kind it is cell-based, human. An excerpt:
(§2) To determine if nicotinamide metabolism is important in LSC survival, particularly in the context of relapsed disease, LSCs were first isolated from de novo AML and relapsed AML patients and analyzed. […] Nicotinamide is a precursor of NAD+, an essential coenzyme in energy metabolism. To test if relapsed LSCs are dependent on nicotinamide metabolism to maintain energy metabolism, nicotinamide metabolism was disrupted in LSCs using the small molecule APO866, which is an inhibitor of Nampt, the rate-limiting enzyme for conversion of nicotinamide to NAD+.
(§3) To better understand the mechanism by which inhibiting nicotinamide metabolism targets relapsed LSCs, changes in OXPHOS and glycolysis activity in de novo and relapsed LSCs after APO866 treatment was measured. […] No change in glycolysis was observed.
To determine how APO866 reduced OXPHOS, stable isotope metabolic flux of amino acids, the fatty acid palmitate, and glucose into the TCA cycle after APO866 treatment was measured.

The test system of series [2] is relapsed AML patient sample. Put plainly: Engraftment of APO866-treated relapsed AML patient sample into immune deficient mice. The class given is in vivo. The settings on record: sample treated for 24 hours before engraftment.
The test system of the next series is malate dehydrogenase. Put plainly: TCA cycle enzyme activity in relapsed LSCs after APO866. The class given is cell-based, human. The settings on record: 4 hours.
The next series has as its system de novo LSCs. Put plainly: APO866 treatment of LSCs from de novo AML patients (NAD+, viability, colony formation, OXPHOS). In kind it is cell-based, human.
From the text: as §2, §3

Series [3] relates to α-ketoglutarate dehydrogenase. Put plainly: TCA cycle enzyme activity in relapsed LSCs after APO866. The class given is cell-based, human. To be noted: 4 hours.

Where only a bound is given, the exact number is not on record here.

As to `CCOC(=O)[C@@]1(CCCCCCOc2ccc(Cl)cc2)CO1` [etomoxir], in the series with LSCs (venetoclax/azacitidine resistant LSCs), the “sensitization of LSCs” value is listed as “potently sensitizes LSCs to venetoclax+azacitidine”.

For `Nc1ncn([C@@H]2O[C@H](CO)[C@@H](O)[C@H]2O)c(=O)n1` [azacitidine], in the series with CD34+/CD38−/CD123+ cells, the “viability / killing of CD123+ MDS stem cells” value (“viability / killing” below) is listed as “no significant decreases in viability”. Moreover, in the series with CD34+/CD38−/CD123+ cells (seven high-risk MDS patient specimens), the “toxicity between CD123+ vs. CD123−” value is reported as “no differential toxicity”. The “engraftment models with single agent toxicity for human CD45+ cells” value with MDS stem cells was “one”. The “amino acid transporter expression” value in the series on ROS-low LSCs was “Neither venetoclax nor azacitidine could reduce expression”. For the same compound, the “ROS-low LSC and ROS-high AML blast viability” value in the series on LSCs (in vitro, 500 nM venetoclax, 2.5 μM azacitidine, 24 hours) is “potentiates the effect of venetoclax”. Further, the ROS levels entry with ETC complex II was “can increase ROS levels”. Also, in the series with AML blasts, the “patients without alterations in OXPHOS levels” value is given as “two of three”.

As to `CC(C)[C@@H]1NC(=O)[C@H](C)OC(=O)[C@@H](C(C)C)NC(=O)[C@@H](C(C)C)OC(=O)[C@H](C(C)C)NC(=O)[C@H](C)OC(=O)[C@@H](C(C)C)NC(=O)[C@@H](C(C)C)OC(=O)[C@H](C(C)C)NC(=O)[C@H](C)OC(=O)[C@@H](C(C)C)NC(=O)[C@@H](C(C)C)OC1=O` [valinomycin], the “mitochondrial mass in LSCs” value in series [1] (freshly sorted LSCs) is “efficient clearance of mitochondria”. Besides, the “mitochondrial mass in non-LSCs” value in series [1] (freshly sorted non-LSCs) is listed as “further accumulation of mitochondrial mass”. In the series with CD34+ cells, the mitochondrial mass entry is given as “induced mitochondrial accumulation”. Also, the mitochondrial content entry in the series on MOLM-13 cells was “loss of mitochondria”. Besides, the PINK1 expression result with MOLM-13 cells (5 mM valinomycin for 3 hr) was “increased PINK1 expression”.

Turning to sorbitan sesquioleate [SSO], in the series with normal HSPCs, the “normal HSPCs viability or colony forming ability” value is listed as “did not affect”.

On to `COC(=O)C[C@](O)(CCCC(C)(C)O)C(=O)O[C@@H]1C(OC)=C[C@]23CCCN2CCc2cc4c(cc2[C@H]13)OCO4` [omacetaxine, omacetaxine mepesuccinate], for which the “viability / killing” value in the series with CD34+/CD38−/CD123+ cells was “specifically targeted CD123+ cells”. Besides, the “engraftment models with single agent toxicity in the more primitive cells” value in the series on MDS stem cells (CD34+/CD38−/CD123+ subpopulation) is on record as 2 of 3. The “reduction in CD34+/CD38−/CD123+ cells” value was “greater than or equal to 50%” with MDS stem cells (each xenograft) and more than 80% in the series on MDS stem cells (one xenograft). In the series on MDS stem cells, the “engraftment models with single agent toxicity for human CD45+ cells” value is on record as “two”. Besides, the protein translation levels entry in the series with protein synthesis is “effective at decreasing protein translation levels”. Further, the mitochondrial respiration result with primary MDS cells is recorded as “impairs mitochondrial respiration”.

For the compound `COc1ccc(C[C@H]2NC[C@H](O)[C@H]2OC(C)=O)cc1` [Anisomycin, anisomycin], in the series on CD34+/CD38−/CD123+ cells, the “viability / killing” value is “selective killing”.

`O=C(/C=C/c1cccnc1)NCCCCC1CCN(C(=O)c2ccccc2)CC1` [APO866]: the isocitrate dehydrogenase activity result with isocitrate dehydrogenase is recorded as “significantly decreased”. For the same compound, the “NAD+” value in the series with relapsed LSCs (LSCs from relapsed AML patient samples) and in the series on de novo LSCs (LSCs from de novo AML patient samples) was “significant decrease in NAD+” throughout. Also, the “viability and colony-forming ability” value in the series on relapsed LSCs (LSCs from relapsed AML patients, 24 hours) is “decreased viability and colony-forming ability”; in the series with de novo LSCs (LSCs from de novo, untreated patients, 24 hours), “not LSCs from de novo, untreated patients”. The glycolysis result in the series with relapsed LSCs (de novo and relapsed LSCs) is listed as “No change”. Further, the “OXPHOS and OXPHOS capacity” value is recorded as “significant decrease” in the series with relapsed LSCs (relapsed LSCs, 4 hours) and “not de novo LSCs” in the series with de novo LSCs (de novo LSCs, 4 hours). Also, in the series on relapsed LSCs (stable isotope metabolic flux), the “citrate, malate, and α-ketoglutarate from amino acids and palmitate” value is recorded as “increased accumulation”. The “glycolysis or glucose contribution to the TCA cycle” value with relapsed LSCs (stable isotope metabolic flux) is recorded as “No changes”. In [2], the leukemia engraftment entry is recorded as “significant reduction in leukemia engraftment”. Besides, the malate dehydrogenase activity result with malate dehydrogenase is reported as “significantly decreased”. For the same compound, the “normal hematopoietic stem cell frequency or colony forming ability” value in the series with normal HSPCs is recorded as “did not affect”. Further, the α-ketoglutarate dehydrogenase activity result in [3] was “significantly decreased”.
